Measurements published in US8592466B2, “Methods for treating conditions caused by higher-than-normal dopaminergic activity in basal ganglia” (Neuropill, Inc., priority 2008, dated 2013).
≈ marks a conversion by molar mass, not a printed value. Where two headings read alike, the source gives them in different places.

Key:
[1] = Solubility in organic solvents and aqueous media; assay type: physicochemical
[2] = molecular target: T1, CCK-B receptor (Homo sapiens, UniProt P32239); test: CCK-B receptor antagonism (statement)
T1 sequence (P32239 1-447): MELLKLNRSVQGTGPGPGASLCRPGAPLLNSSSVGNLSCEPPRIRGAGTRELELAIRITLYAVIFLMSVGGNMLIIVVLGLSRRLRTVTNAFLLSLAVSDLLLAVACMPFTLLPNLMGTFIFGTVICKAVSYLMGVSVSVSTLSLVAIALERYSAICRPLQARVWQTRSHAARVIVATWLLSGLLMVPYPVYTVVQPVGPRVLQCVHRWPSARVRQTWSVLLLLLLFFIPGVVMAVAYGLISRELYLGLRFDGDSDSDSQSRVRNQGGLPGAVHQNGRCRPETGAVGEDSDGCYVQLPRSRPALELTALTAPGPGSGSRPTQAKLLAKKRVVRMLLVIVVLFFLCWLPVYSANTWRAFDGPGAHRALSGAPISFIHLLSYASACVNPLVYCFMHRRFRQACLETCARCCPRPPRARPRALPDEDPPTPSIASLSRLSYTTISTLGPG

[3] = Phase I cocaine interaction study: 12-lead ECG; assay type: in vivo, humans
Protocol: Changes in ECG readings during saline infusion as compared to those taken during cocaine infusions were also reported.
A 12 Lead ECG was scheduled at Pre-Intake Screening, Intake Screening, Discharge and follow-up all of which are non-infusion days. […] All subjects completed the non-infusion ECG's at baseline and discharge.
To evaluate subjects' responses to cocaine infusion, measurements after cocaine 40 mg infusion were compared to those prior to any infusion (reading at −10 min). Readings at 4 min and 40 min were used when the first infusion was cocaine while readings at 64 min and 100 min were used when the second infusion was cocaine. […] The RPR 102681 group also had decreased RR and QT duration from baseline at 40 min post cocaine infusion on day 15. In the placebo group, some scattered significant decreases from baseline were observed including PR duration at 4 min post cocaine on day 8 and RR duration at 4 min post cocaine on day 8 and 15. […] However, the statistical significance might not hold if multiplicity adjustment was performed in these multiple comparisons.

[4] = RPR 102681 plasma concentration by LC/MS/MS; assay type: in vivo, humans; conditions: for concentration at 95 min / concentration at 215 min: human, plasma, read-out: mean plasma concentration (3-day average); for concentration at 95 min: 95 minutes post dose; for concentration at 215 min: 215 minutes post dose
Protocol: […] Pharmacokinetics (peak and trough levels) of RPR 102681 during treatment at a dose of 200 mg (day 13), 400 mg (day 20) and 800 mg (day 27) b.i.d. were determined.
The plasma concentration of RPR 102681 was determined with a validated liquid chromatography assay with mass spectrometric detection (LC/MS/MS) at the Department of Biopharmaceutical Sciences, University of California, San Francisco, Calif.
The sample plasma specimens for determining plasma concentration (354 RPR 102681 plasma specimens and 109 Prolactin plasma specimens) were frozen and packed in dry ice upon receipt by the Analytical Division/Drug Studies Unit at South San Francisco, Calif. These samples were kept frozen at approximately −20° C. until analyzed.
Human plasma samples (0.100 mL) were analyzed for RPR 102681 with an LC/MS/MS procedure utilizing a PE Sciex III system equipped with a BDS Hypersil C18 column (4.6×15 mm, 5 μm particle size), a mobile system consisting of acetonitrile:water:trifluoroacetic acid (70:30:0.06) (v/v) with 0.0006% (w/v) ammonium phosphate dibasic; mass spectrometric detection was accomplished with a sample inlet, heated nebulizer, positive ionization by Atmospheric Pressure Chemical Ionization (APCI) and mass scanning by Multiple Reaction Monitoring (MRM) analysis. Sample preparation consisted of precipitation of 0.100 mL of plasma with acetonitrile containing the internal standard (prednisolone acetate) prior to separation by LC/MS/MS. The linear range of the assay was 1.0 to 160 ng/mL, with a lower limit of quantitation of 1.0 ng/mL.
Standard curve and quality control (QC) samples were generated by spiking interference free human plasma samples with known amounts of RPR 102681 and internal standard (IS). These standard curve, assay, and QC samples were processed, then 40 μl aliquots were injected into the LC/MS/MS system for chromatographic separation and subsequent mass spectrometric detection. The peak area ratios of RPR 102681 to IS were calculated for each sample from the measured peak areas obtained by LC/MS/MS. Finally, spiked concentrations and RPR 102681 to IS peak area ratios of the standard curve samples were fit by 1/x weighted least squares linear regression to the equation for the best straight line (y=mx+b, where y=peak area ratio and x=RPR 102681 concentration), and drug concentration in assay sample were calculated by the equation from the RPR 102681 to IS peak area ratios obtained by LC/MS/MS.

[5] = test system: dopamine release in the ventral striatum; conditions: animal data, cited from earlier work
[6] = cited from earlier work
[7] = NIH study: treatment of cocaine abuse; conditions: humans

Compound `CC(C(=O)O)c1cccc(NC(=O)NCC(=O)N2C(C(=O)OC(C)(C)C)CSC2c2ccccc2F)c1` [RPR 102681, (2S)-2-{3-[3-({[(2R,4R)-4-tert-Butoxycarbonyl-2-(2-fluorophenyl)]-3-thiazolidinyl}carbonylmethyl)ureido]phenyl}propionic acid] has a solubility ([1]; acetone, organic solvent or mixture) of 250 mg/mL (≈ 470 mM), a solubility ([1]; aqueous media, aqueous buffer, pH less than 6) of under 1 mg/mL and a solubility ([1]; diethyl ether, organic solvent or mixture) of 100 mg/mL (≈ 188 mM). The solubility ([1]; dimethylformamide, organic solvent or mixture, dimenthylformamide) was 1000 mg/mL (≈ 1880 mM), the solubility ([1]; ethanol, organic solvent or mixture) was 1000 mg/mL (≈ 1880 mM) and the solubility ([1]; ethyl acetate, organic solvent or mixture) was 400 mg/mL (≈ 752 mM). The solubility ([1]; methylene chloride, organic solvent or mixture) was 500 mg/mL (≈ 941 mM), the solubility ([1]; sodium phosphate, pH 7.4, aqueous buffer) was 20 mg/mL (≈ 37.6 mM) and the solubility ([1]; toluene, organic solvent or mixture) was 100 mg/mL (≈ 188 mM). The solubility ([1]; water) was 0.1 mg/mL (≈ 0.188 mM), the CCK-B receptor antagonism [2] was “potent CCK-B receptor antagonist” and the “PR/RR/QT duration following cocaine infusion vs pre infusion” value ([3]; cocaine 40 mg infusion) was “seemed to decrease”. For the same compound, the “clinical significance of PR/RR/QT changes” value ([3]; cocaine 40 mg infusion) was “not clinically significant”, the “pre infusion RR and QT duration vs intake screening” value ([3]; days 8, 15, 22, 29) was “No significant difference” and the “pre infusion PR duration vs intake screening” value ([3]; days 8, 15, 22, 29, Signed Rank Test) was “significantly longer”. The “ECG mean values for VR, PR, QT, RR and QRS” value ([3]; non-infusion days) was “within normal range”, the “mean plasma concentration at 2-3.5 hours relative to 8-11 hours” value ([4]; 200 mg dose) was “approximately 19 times” and the “mean plasma concentration at 2-3.5 hours relative to 8-11 hours” value ([4]; 400 mg dose) was about 15 times. The “dose-proportionality of plasma concentration” value ([4]; 400 mg to 800 mg dose range, 95 and 215 minutes post-dose) was “Severe deviation from dose-proportionality”, the “mean plasma concentration at 2-3.5 hours relative to 8-11 hours” value ([4]; 800 mg dose) was about 8 times and the “least-squares mean of dose-normalized concentration” value ([4]; 95 minutes post-dose, day 13, 200 mg) was 1.26 ng/mL. For the same compound, the “least-squares mean of dose-normalized concentration” value ([4]; 95 minutes post-dose, day 14, 200 mg) was 1.12 ng/mL, the “least-squares mean of dose-normalized concentration” value ([4]; 95 minutes post-dose, day 15, 200 mg) was 1.25 ng/mL and the “least-squares mean of dose-normalized concentration” value ([4]; 95 minutes post-dose, day 20, 400 mg) was 1.36 ng/mL. The “least-squares mean of dose-normalized concentration” value ([4]; 95 minutes post-dose, day 21, 400 mg) was 0.87 ng/mL, the “least-squares mean of dose-normalized concentration” value ([4]; 95 minutes post-dose, day 22, 400 mg) was 1.05 ng/mL and the “least-squares mean of dose-normalized concentration” value ([4]; 95 minutes post-dose, day 27, 800 m) was 0.78 ng/mL. For the same compound, the “least-squares mean of dose-normalized concentration” value ([4]; 95 minutes post-dose, day 28, 800 m) was 0.58 ng/mL, the “least-squares mean of dose-normalized concentration” value ([4]; 95 minutes post-dose, day 29, 800 m) was 0.43 ng/mL and the “least-squares mean of dose-normalized concentration” value ([4]; 215 minutes after dose, day 13, 200 mg) was 0.70 ng/mL. The “least-squares mean of dose-normalized concentration” value ([4]; 215 minutes after dose, day 14, 200 mg) was 0.78 ng/mL, the “least-squares mean of dose-normalized concentration” value ([4]; 215 minutes after dose, day 15, 200 mg) was 0.62 ng/mL and the “least-squares mean of dose-normalized concentration” value ([4]; 215 minutes after dose, day 20, 400 mg) was 0.58 ng/mL. For the same compound, the “least-squares mean of dose-normalized concentration” value ([4]; 215 minutes after dose, day 21, 400 mg) was 0.54 ng/mL, the “least-squares mean of dose-normalized concentration” value ([4]; 215 minutes after dose, day 22, 400 mg) was 0.66 ng/mL and the “least-squares mean of dose-normalized concentration” value ([4]; 215 minutes after dose, day 27, 800 mg) was 0.42 ng/mL. For the same compound, the “least-squares mean of dose-normalized concentration” value ([4]; 215 minutes after dose, day 28, 800 mg) was 0.39 ng/mL, the “least-squares mean of dose-normalized concentration” value ([4]; 215 minutes after dose, day 29, 800 mg) was 0.33 ng/mL and the concentration at 95 min ([4]; 200 mg b.i.d. oral) was 242 ng/mL. For the same compound, the concentration at 95 min ([4]; 400 mg b.i.d. oral) was 422 ng/mL, the concentration at 95 min ([4]; 800 mg b.i.d. oral) was 441 ng/mL and the concentration at 215 min ([4]; 200 mg b.i.d. oral) was 140 ng/mL. The concentration at 215 min ([4]; 400 mg b.i.d. oral) was 255 ng/mL, the concentration at 215 min ([4]; 800 mg b.i.d. oral) was 285 ng/mL and the “dopamine release in the ventral striatum (microdialysis)” value ([5]; intraperitoneal administration) was “stimulates dopamine release”. The “release of dopamine compared to baseline values” ([5]; intraperitoneal, highest dose tested 20 mg/Kg) was “almost tripled”, the diarrhea ([6]; first clinical study) was 2 occurrences and the euphoria ([6]; first clinical study) was 2 occurrences. The headaches ([6]; first clinical study) was 3 occurrences, the postural hypotension ([6]; first clinical study) was 6 occurrences and the somnolence ([6]; first clinical study) was 3 occurrences. For the same compound, the flatulence ([6]; second clinical study) was 4 occurrences, the headache ([6]; second clinical study) was 1 occurrences and the pharyngitis ([6]; second clinical study) was 4 occurrences. For the same compound, the serious adverse events ([6]; two clinical studies in France and two NIH studies) was “no serious adverse events” and the “efficacy in treating cocaine abuse” value [7] was “ineffective”.
